“Also recorded” adds a separate entry of the source.
Key:
[1] = system: hippocampal area CA1 slices; experiment: Field potential (FP) recordings in area CA1 of rat hippocampal slices (DHPG-LTD); format: cell-based, Long Evans rats
Description: All animals were used in accordance with procedures approved by the Brown University Institutional Animal Care and Use Committee. Hippocampal slices were prepared from postnatal day 21-30 (P21-30) Long Evans rats (Charles River, Cambridge, Mass.) and mGluR5 knockout mice (Lu et al. 1997) as described previously (Huber et al. 2000). For most experiments, CA3 was removed immediately after sectioning. Slices recovered for 1-2 h at room temperature (rats) or at 30° C. (mice) in artificial cerebrospinal fluid (ACSF) containing (in mM) 124 NaCl, 5 KCl, 1.25 NaH2PO4, 26 NaHCO3, 1 MgCl2, 2 CaCl2, and 10 dextrose, saturated with 95% O2-5% CO2. For recording, slices were placed in a submersion recording chamber and perfused with 30° C. ACSF at a rate of 2 ml/min.
Synaptically evoked field potentials (FPs) were recorded from area CA1 as described previously. Sharp microelectrode and whole cell voltage-clamp recordings were made using Axoclamp 2B and Axopatch 1D amplifiers (Axon Instruments), respectively. Sharp electrodes (80-120 M Ω) were filled with 3 M K-acetate and 10 mM KCl; patch pipettes (3-7 M Ω) were filled with (in mM) 134 K-gluconate, 6 KCl, 4 NaCl, 10 HEPES, 0.2 EGTA, 4 MgATP, 0.3 TrisGTP, and 14 phosphocreatine. The pH of the internal solution was adjusted to 7.25 with KOH, and the osmolarity was adjusted to 300 mOsm with H2O or sucrose. Only experiments in which there was less than a 15% change in series resistance were included in the analysis. Waveforms were filtered at 2 kHz and acquired and digitized at 10 kHz on a PC using Experimenter's Workbench (DataWave Systems, Boulder, Colo.).
Baseline responses were collected every 10-30 s using a stimulation intensity (10-30 μA; 0.2 ms) yielding 50-60% of the maximal response. Experiments in which there was a>5% drift in the response magnitude during the 20-min baseline period before DHPG or LFS were excluded from further analysis. All experiments with mGluR5 KO mice used wildtype littermates as controls and were performed blind to the genotype, later determined by Therion (Troy, N.Y.). LFS consisted of 900 pulses at 1 Hz. PP-LFS consisted of 900 pairs of stimuli (50-ms interstimulus interval) delivered at 1 Hz. In saturation experiments, stimulus duration was increased from 0.2 to 0.4 ms during PP-LFS.
The group data were analyzed as follows: 1) the initial slopes of the FPs and excitatory postsynaptic potentials (EPSPs), or the amplitude of the excitatory postsynaptic currents (EPSCs), for each experiment were expressed as percentages of the preconditioning or DHPG baseline average, 2) the time scale in each experiment was converted to time from the onset of conditioning or DHPG, and 3) the time-matched, normalized data were averaged across experiments and expressed in the text and figures as the means ±SE. Significant differences between groups were determined using an independent t-test or ANOVA performed on a 5-min average taken 1 h after LFS or DHPG application.
R,S-DHPG and D-2-amino-5-phosphonopentanoic acid (D-AP5) was purchased from Tocris (St. Louis, Mo.); all other chemicals were from Sigma Chemical (St Louis, Mo.). DHPG was prepared as a 100 times stock in H2O, aliquoted and stored at −20° C. Fresh stocks were made once a week. A 10 times stock of AP5 was prepared in ACSF and stored at 4° C. These stocks were diluted in ACSF to achieve their final concentrations. Picrotoxin was dissolved directly into ACSF immediately before use.

[2] = system: cultured hippocampal neurons; experiment: Immunocytochemical localization of surface synaptic receptors (GluR2, GluR1, NR1, GABAAβ1); format: cell-based, rat; conditions: for GluR1-positive synapses: cycloheximide 60 μM applied 15 min before DHPG where named
Text: We next determined if the DHPG-induced increase in internalized AMPARs is accompanied by a net decrease in surface-expressed receptor clusters at synapses. At various intervals after DHPG washout, cells were fixed and surface GluR2 or GluR1 was labeled with N-terminal antibodies without permeabilization. The cultures were then permeabilized, and synapses were labeled using an antibody against the presynaptic marker synapsin I or synaptophysin coupled to the appropriate secondary antibody. Under control conditions, most synapses were immunoreactive for AMPAR clusters (GluR2, 80.6±9.0%; n=10 cells, 200 synapses, FIGS. 5A-D; GluR1, 72.5±4.7%; n=15 cells, 225 synapses; FIGS. 5E and F).
Following experimental treatment, low-density cultures were fixed in 4% paraformaldehyde with 4% sucrose for 5 min. Cultures were rinsed in PBS and then blocked in PBS with 20% fetal bovine serum for 1 h. Cultures were stained with N-terminal receptor antibodies overnight at 4° C. (GluR2, 1:100, Chemicon, Ternecula, California; GluR1, 1:100, gift of R. Huganir; NR1, 1:500, Chemicon MAB363; GABAAβ1, 1:100 Santa Cruz Biologicals, Santa Cruz, Calif.). Cultures were then rinsed in blocking buffer containing 0.1% Triton-X for 20 min and exposed to antibodies directed against presynaptic proteins (synapsin 1, 1:1000, Chemicon; synaptophysin, 1:100, Boehringer Manheim, Irvine, Calif.) for 1 h at room temperature. Cultures were then rinsed and exposed to the appropriate fluorescent secondary antibodies (Jackson Immunoresearch, West Grove, Pa.).
Microscopy was performed with a Nikon E800 microscope using a 60×1.4 NA objective (Melville, N.Y.). Fluorescence images were collected with a Sensys cooled CCD camera and analyzed using IP-Labs software. Additional images were collected with a Olympus Flowview confocal microscope with a 60×1.2 NA objective. All analyses were performed blind to the stimulation history of the culture. Microscopic fields had 1-3 neurons displaying smooth soma and generally healthy morphology with multiple distinct processes. Immunofluorescence was analyzed along the proximal 50 μm of 3 or more dendrites per neuron. Immunoreactive puncta were defined as discrete points along the dendrite with fluorescence intensity twice the background staining of the neuron. Five cells were analyzed per culture and 3-6 cultures were analyzed per condition. Separate controls were performed with each experiment and a Student's t-test was used to determine statistical significance. Data are expressed as puncta per 10 μm of dendrite unless stated otherwise.

[3] = system: cultured hippocampal neurons; experiment: Acid strip immunocytochemistry for internalized GluR1 (AMPARs); format: cell-based, rat; conditions: for effect on DHPG/mGluR-stimulated internalization of GluR1 (in words): APV 50 μM, cycloheximide 60 μM applied 15 min before DHPG; for effect on basal levels of internalized puncta (in words): without DHPG
[4] = system: high-density cultured hippocampal neurons; experiment: Biotinylation and quantitative western blot of surface expressed receptors; format: cell-based, rat; conditions: DHPG 50 μM, 5 min; 60 minutes later; cycloheximide 60 μM with DHPG where named
Description: To confirm the effect of mGluR activation on surface AMPARs using an alternative approach, we treated high-density cultures with DHPG (50 μM, 5 min) or control medium and surface receptors were labeled with biotin 60 minutes later. Biotinylated receptors were precipitated and the ratio of surface to total GluR1 was determined by quantitative western blotting. This biochemical analysis confirmed that surface AMPARs are reduced by DHPG treatment to only 56.8±4.0% of the value in control cultures (n=4 in each treatment group; p<0.01; FIG. 6).
Biotinylation experiments were performed as previously described^35. Briefly, 2-week-old high-density cultured hippocampal neurons were treated with either control medium or 50 μM DHPG for 5 min, and incubated for 1 h at 37° C. to allow endocytosis to occur. The sister cultures were placed on ice to stop endocytosis and washed two times with ice-cold artificial cerebrospinal fluid (ACSF) containing 124 mM NaCl, 5 mM KCl, 1.25 mM NaH2PO4, 26 mM NaHCO3, 0.8 mM MgCl2, 1.8 mM CaCl2, 10 mM dextrose, and saturated with 95% O2, 5% CO2. Cultures were then incubated with ACSF containing 1 mg/ml Sulfo-NHS-LC-Biotin (Pierce Chemical Company, Rockford, Ill.) for 30 min on ice. Cultures were rinsed in TBS to quench the biotin reaction. […] Quantitative western blots were performed on both total and biotinylated (surface) proteins using anti-GluR1 C-terminal (1:1000, Upstate Biotechnology, Lake Placid, N.Y.) and anti-NR1 N-terminal antibodies (1:1000, Chemicon). […] Digital images, produced by densitometric scans of autoradiographs on a ScanJet IIcx (Hewlett Packard, Palo Alto, Calif.) with DeskScan II software (Hewlett Packard), were quantified using NIH Image 1.60 software. The surface/total ratio was calculated for each culture, and treatment groups were compared using a paired t-test. […] For display purposes, the data are expressed as the ratio of DHPG to control values.

**Q.** What does the source list for `N[C@@H](Cn1oc(=O)[nH]c1=O)C(=O)O` [quisqualic acid]?
**A.** LTD of FP, % of baseline ([1]; quisqualic acid 5 μM, 5 min): 81±2%; LTD induced with quisqualic acid in the presence of AP5 ([1]; quisqualic acid 5 μM, with AP5): 79±2%

**Q.** `C[C@@H]1C[C@@H]([C@H](O)CC2CC(=O)NC(=O)C2)C(=O)[C@@H](C)C1` [cycloheximide] was tested. Which GluR1-positive synapses ([2]; 15 min after DHPG) did it give?
**A.** 37.8±3.8%

**Q.** And the GluR1-positive synapses ([2]; 60 min after DHPG)?
**A.** 55.7±5.1%

**Q.** What about the NR1-positive synapses ([2]; 60 minutes after DHPG treatment, with cycloheximide where named) of the same compound?
**A.** 42+5%

**Q.** What about the “effect on DHPG/mGluR-stimulated internalization of GluR1 (in words)” value ([3]; LY344545 100 μM) of the same compound?
**A.** significantly inhibited; also recorded: decreases

**Q.** What about the “internalized GluR1 puncta, cycloheximide experiment” value ([3]; measured at 60 minutes, chx 60 μM applied 15 min before DHPG) of the same compound?
**A.** 0.76±0.09 puncta per 10 μm of dendrite

**Q.** What about the “effect on basal levels of internalized puncta (in words)” value [3] of the same compound?
**A.** Neither cycloheximide nor anisomycin had any significant effect

**Q.** And the “surface NR1 (surface/total), % of the value in control cultures” value [4]?
**A.** 79.1±14.5%

**Q.** Which results are given for `N[C@H](CCCP(=O)(O)O)C(=O)O` [AP5, D-2-amino-5-phosphonopentanoic acid]?
**A.** effect on DHPG/mGluR-stimulated internalization of GluR1 (in words) ([3]; LY344545 100 μM): no effect; effect on the magnitude of DHPG-LTD (in words) ([1]; AP5 50 μM): no effect; magnitude of DHPG-LTD in the presence of AP5 ([1]; AP5 50 μM preincubation, DHPG 50 μM, 5 min): 83±3%

**Q.** Which results are given for `N[C@](CC1c2ccccc2Oc2ccccc21)(C(=O)O)[C@@H]1C[C@H]1C(=O)O` [LY344545]?
**A.** internalized GluR1 puncta, LY344545 experiment ([3]; DHPG 50 μM, 5 min, LY344545 100 μM): 0.32±0.08 puncta per 10 μm of dendrite; effect on DHPG/mGluR-stimulated internalization of GluR1 (in words) ([3]; LY344545 100 μM): completely blocked

**Q.** How did the “effect on DHPG/mGluR-stimulated internalization of GluR1 (in words)” value ([3]; LY344545 100 μM) turn out when `COc1ccc(C[C@H]2NC[C@H](O)[C@H]2OC(C)=O)cc1` [anisomycin] was run?
**A.** blocked

**Q.** And the “effect on basal levels of internalized puncta (in words)” value [3]?
**A.** Neither cycloheximide nor anisomycin had any significant effect
